Each molecule was assayed against T1, recombinant human AKR1C3 (Homo sapiens, UniProt P42330) (assay: AKR1C3-inhibitory activity assay (generation of Coumberol from Coumberone)). Details: Coumberone 0.3 μM, NADPH 10 μM, 22° C., typically 90 min, average or median values.
T1 construct: GST (cleaved yes); made in house; host or cells: E. coli
T1 sequence (P42330 1-323): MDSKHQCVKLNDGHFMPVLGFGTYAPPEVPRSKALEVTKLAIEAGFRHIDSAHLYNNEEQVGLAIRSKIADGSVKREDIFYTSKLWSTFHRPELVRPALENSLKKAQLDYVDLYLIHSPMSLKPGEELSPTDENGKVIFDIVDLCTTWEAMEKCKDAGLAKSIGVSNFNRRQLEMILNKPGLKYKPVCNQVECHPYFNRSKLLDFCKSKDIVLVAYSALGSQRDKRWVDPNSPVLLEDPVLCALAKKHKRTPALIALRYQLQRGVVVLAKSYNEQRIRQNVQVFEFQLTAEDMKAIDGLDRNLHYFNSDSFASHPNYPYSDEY
Format: biochemical
Method in brief: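 Recombinant human AKR1C3 (E. coli GST fusion, GST removed; ~1 nM) preincubated 15 min with compound, then NADPH 10 μM and Coumberone 0.3 μM (final), 22 °C, typically 90 min, in 50 mM K-phosphate pH 7. Stopped with EM-1404 (1 μM final); Coumberol fluorescence read at 520 nm (ex 380 nm), normalized to no-inhibitor and no-enzyme controls.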

| Compound | IC50 [nM] |
| --- | --- |
| C[C@@H]1CN(S(=O)(=O)c2ccccc2Br)C[C@H](C)N1C(=O)c1cnn[nH]1 [Example 102, {(2R,6S)-4-[(2-bromophenyl)sulfonyl]-2,6-dimethylpiperazin-1-yl}(1H-1,2,3-triazol-5-yl)methanone] | 1 |
| C[C@@H]1CN(S(=O)(=O)c2ccccc2-c2ccccc2)C[C@H](C)N1C(=O)c1cnn[nH]1 [Example 107, [(2R,6S)-4-(biphenyl-2-ylsulfonyl)-2,6-dimethylpiperazin-1-yl](1H-1,2,3-triazol-5-yl)methanone] | 245 |
| COc1cccc(S(=O)(=O)N2C[C@@H](C)N(C(=O)c3cnn[nH]3)[C@@H](C)C2)c1 [Example 108, {(2R,6S)-4-[(3-methoxyphenyl)sulfonyl]-2,6-dimethylpiperazin-1-yl}(1H-1,2,3-triazol-5-yl)methanone] | 40 |
| CC1(C)CN(C(=O)c2cnn[nH]2)CCN1S(=O)(=O)c1ccc(Cl)cc1 [Example 110, {4-[(4-chlorophenyl)sulfonyl]-3,3-dimethylpiperazin-1-yl}(1H-1,2,3-triazol-5-yl)methanone] | 5 |
| CC1(C)CN(C(=O)c2cnn[nH]2)CCN1S(=O)(=O)c1cccc([N+](=O)[O-])c1 [Example 112, {3,3-dimethyl-4-[(3-nitrophenyl)sulfonyl]piperazin-1-yl}(1H-1,2,3-triazol-5-yl)methanone] | 24 |
| COc1ccc(OC)c(S(=O)(=O)N2CCN(C(=O)c3cnn[nH]3)CC2(C)C)c1 [Example 115, {4-[(2,5-dimethoxyphenyl)sulfonyl]-3,3-dimethylpiperazin-1-yl}(1H-1,2,3-triazol-5-yl)methanone] | 208 |
| CC1(C)CN(C(=O)c2cnn[nH]2)CCN1S(=O)(=O)c1ccc(Cl)c(Cl)c1 [Example 116, {4-[(3,4-dichlorophenyl)sulfonyl]-3,3-dimethylpiperazin-1-yl}(1H-1,2,3-triazol-5-yl)methanone] | 2 |
| CC1(C)CN(C(=O)c2cnn[nH]2)CCN1S(=O)(=O)c1cccc(Cl)c1Cl [Example 119, {4-[(2,3-dichlorophenyl)sulfonyl]-3,3-dimethylpiperazin-1-yl}(1H-1,2,3-triazol-5-yl)methanone] | 9 |
| CC1(C)CN(C(=O)c2cnn[nH]2)CCN1S(=O)(=O)c1ccc(C#N)cc1 [Example 120, 4-{[2,2-dimethyl-4-(1H-1,2,3-triazol-5-ylcarbonyl)piperazin-1-yl]sulfonyl}benzonitrile] | 263 |
| CC1(C)CN(C(=O)c2cnn[nH]2)CCN1S(=O)(=O)c1cccc2nsnc12 [Example 121, [4-(2,1,3-benzothiadiazol-4-ylsulfonyl)-3,3-dimethylpiperazin-1-yl](1H-1,2,3-triazol-5-yl)methanone] | 29 |
| CC1(C)CN(C(=O)c2cnn[nH]2)CCN1S(=O)(=O)c1c(Cl)cc(Cl)cc1Cl [Example 123, {3,3-dimethyl-4-[(2,4,6-trichlorophenyl)sulfonyl]piperazin-1-yl}(1H-1,2,3-triazol-5-yl)methanone] | 12 |
| CC1(C)CN(C(=O)c2cnn[nH]2)CCN1S(=O)(=O)c1ccc2nsnc2c1 [Example 125, [4-(2,1,3-benzothiadiazol-5-ylsulfonyl)-3,3-dimethylpiperazin-1-yl](1H-1,2,3-triazol-5-yl)methanone] | 25 |
| CC1(C)CN(C(=O)c2cnn[nH]2)CCN1S(=O)(=O)c1ccc(F)c(F)c1F [Example 126, {3,3-dimethyl-4-[(2,3,4-trifluorophenyl)sulfonyl]piperazin-1-yl}(1H-1,2,3-triazol-5-yl)methanone] | 46 |
| CC1(C)CN(C(=O)c2cnn[nH]2)CCN1S(=O)(=O)c1cc(Cl)ccc1F [Example 127, {4-[(5-chloro-2-fluorophenyl)sulfonyl]-3,3-dimethylpiperazin-1-yl}(1H-1,2,3-triazol-5-yl)methanone] | 4 |
| CC1(C)CN(C(=O)c2cnn[nH]2)CCN1S(=O)(=O)c1cc(F)c(F)cc1F [Example 128, {3,3-dimethyl-4-[(2,4,5-trifluorophenyl)sulfonyl]piperazin-1-yl}(1H-1,2,3-triazol-5-yl)methanone] | 18 |
| Cc1ccc(Cl)cc1S(=O)(=O)N1CCN(C(=O)c2cnn[nH]2)CC1(C)C [Example 129, {4-[(5-chloro-2-methylphenyl)sulfonyl]-3,3-dimethylpiperazin-1-yl}(1H-1,2,3-triazol-5-yl)methanone] | 6 |

Further molecules by falling IC50, results first:

| IC50 [nM] | Compound |
| --- | --- |
| 96 | COc1ccc(Cl)cc1S(=O)(=O)N1CCN(C(=O)c2cnn[nH]2)CC1(C)C [Example 124, {4-[(5-chloro-2-methoxyphenyl)sulfonyl]-3,3-dimethylpiperazin-1-yl}(1H-1,2,3-triazol-5-yl)methanone] |
| 89 | CC1(C)CN(C(=O)c2cnn[nH]2)CCN1S(=O)(=O)c1ccc([N+](=O)[O-])cc1 [Example 111, {3,3-dimethyl-4-[(4-nitrophenyl)sulfonyl]piperazin-1-yl}(1H-1,2,3-triazol-5-yl)methanone] |
| 77 | COc1ccc(S(=O)(=O)N2CCN(C(=O)c3cnn[nH]3)CC2(C)C)cc1OC [Example 118, {4-[(3,4-dimethoxyphenyl)sulfonyl]-3,3-dimethylpiperazin-1-yl}(1H-1,2,3-triazol-5-yl)methanone] |
| 39 | Cc1cc(C)c(S(=O)(=O)N2CCN(C(=O)c3cnn[nH]3)CC2(C)C)c(C)c1 [Example 113, {3,3-dimethyl-4-[(2,4,6-trimethylphenyl)sulfonyl]piperazin-1-yl}(1H-1,2,3-triazol-5-yl)methanone] |
| 38 | COc1ccccc1S(=O)(=O)N1CCN(C(=O)c2cnn[nH]2)CC1(C)C [Example 130, {4-[(2-methoxyphenyl)sulfonyl]-3,3-dimethylpiperazin-1-yl}(1H-1,2,3-triazol-5-yl)methanone] |
| 35 | CC1(C)CN(C(=O)c2cnn[nH]2)CCN1S(=O)(=O)c1cccc2nonc12 [Example 122, [4-(2,1,3-benzoxadiazol-4-ylsulfonyl)-3,3-dimethylpiperazin-1-yl](1H-1,2,3-triazol-5-yl)methanone] |
| 34 | C[C@@H]1CN(S(=O)(=O)c2cccc(OC(F)(F)F)c2)C[C@H](C)N1C(=O)c1cnn[nH]1 [Example 106, [(2R,6S)-2,6-dimethyl-4-{[3-(trifluoromethoxy)phenyl]sulfonyl}piperazin-1-yl](1H-1,2,3-triazol-5-yl)methanone] |
| 10 | CC1(C)CN(C(=O)c2cnn[nH]2)CCN1S(=O)(=O)c1ccccc1[N+](=O)[O-] [Example 114, {3,3-dimethyl-4-[(2-nitrophenyl)sulfonyl]piperazin-1-yl}(1H-1,2,3-triazol-5-yl)methanone] |
| 4 | CC1(C)CN(C(=O)c2cnn[nH]2)CCN1S(=O)(=O)c1ccc(Br)cc1 [Example 109, {4-[(4-bromophenyl)sulfonyl]-3,3-dimethylpiperazin-1-yl}(1H-1,2,3-triazol-5-yl)methanone] |
| 4 | Cc1cccc(Cl)c1S(=O)(=O)N1CCN(C(=O)c2cnn[nH]2)CC1(C)C [Example 117, {4-[(2-chloro-6-methylphenyl)sulfonyl]-3,3-dimethylpiperazin-1-yl}(1H-1,2,3-triazol-5-yl)methanone] |
| 2 | Cc1c(Cl)cccc1S(=O)(=O)N1C[C@@H](C)N(C(=O)c2cnn[nH]2)[C@@H](C)C1 [Example 103, {(2R,6S)-4-[(3-chloro-2-methylphenyl)sulfonyl]-2,6-dimethylpiperazin-1-yl}(1H-1,2,3-triazol-5-yl)methanone] |

Source: patent US20200079758A1, “[4-(PHENYLSULFONYL)PIPERAZIN-1-YL](1H-1,2,3-TRIAZOL-4-YL)METHANONES” (priority 2016, published 2020)
